Experimental data from US9156809B2, “Carboxy ester ketals, methods of manufacture, and uses thereof” (SEGETIS, INC., priority 2012, dated 2015).

How the values were obtained:
[1] = Compatibility between waxes and alkyl ketal esters; type: physicochemical
Text: Compatibility between various waxes and the alkyl ketal esters are first determined as detailed below. Table 13 below details the fragrant formulations for different candles that contain the fragrant composition.

[2] = Hydrolytic stability of coalescent solvents at elevated temperature (45° C.); type: physicochemical; conditions: 1.0 g coalescent in 10 g Rhoplex SG-10M; for Initial pH: adjusted to pH 9 with ammonia, 45° C. study; for pH 1 week / pH 2 weeks: stored at 45° C.
Method: (§1) Latex formulations were prepared by adding 1.0 gram of each coalescent solvent to 10 grams of an acrylic latex (Rhoplex SG-10M available from Dow Chemical Company) and adjusting the pH of each sample to a pH of 9 using ammonia. A control latex formulation was prepared without adding a coalescent solvent.

[3] = Solubility of personal care or medicinal active agents in ketal; conditions: 50/50 mixture, room temperature
Text: Certified organic tea tree oil (Melaleuca alternifolia, plant sourced from Australia and extracted by steam distillation) can be purchased from Wyndmere Naturals.
The recommended usage rate is 0.1-1%.
The recommended usage rate is 0.01-0.05%.

[4] = Miscibility of alkyl ketal ester with essential oil; type: physicochemical; conditions: room temperature
Text: The alkyl ketal ester and the essential oil are blended in a weight ratio of 1:1 at room temperature using gentle agitation. Solubility is visually determined immediately after mixing. Clear solutions are described as “miscible” and solutions that are either cloudy or show evidence of a second phase are labeled as “immiscible.”

[5] = Model ethanolic sunscreen solutions, miscibility; type: physicochemical; conditions: by itself
Method: Three-component mixtures of ketal, ethanol, and avobenzone are prepared by mixing the materials at various proportions at room temperature in a vial and shaking. Avobenzone by itself is immiscible in ethanol at the 5% by weight level. The ketals used are as follows: A: ketal is 2EH-LPK; Example B: ketal is 1N-LPK. Example C: ketal is 355TMH-LPK.
Three-component mixtures of ketal, ethanol, and oxybenzone are prepared by mixing the materials at various proportions at room temperature in a vial and shaking. The ketals used are as follows: A: ketal is 2EH-LPK; Example B: ketal is 1N-LPK. Example C: ketal is 355TMH-LPK. Clear mixtures are considered to be “miscible” on this test, whereas cloudy or phase separated mixtures are considered to be “immiscible.” Oxybenzone by itself is immiscible in ethanol at the 10% by weight level.

[6] = Relative VOC content / volatility by TGA emulating ASTM D2369; conditions: 110° C., nitrogen purge, 15 mg
Method: Here, 15 milligrams (mg) of each coalescent solvent was maintained at 110° C. for one hour with a nitrogen purge in a thermogravimetric analyzer (TGA).

[7] = Hydrolytic stability of coalescent solvents at room temperature (pH of latex formulation); type: physicochemical; conditions: 1.0 g coalescent in 10 g Rhoplex SG-10M; for Initial pH: adjusted to pH 9 with ammonia, room temperature; for pH 1 week / pH 2 weeks / pH 3 weeks / pH 4 weeks: stored at room temperature
Text: The pH of latex formulations containing ester-functionalized coalescent solvents was monitored over time to evaluate hydrolytic stability of the coalescent solvents. Not wishing to be bound by theory, ester hydrolysis may occur at a high alkaline pH (for example a pH greater than about 9) during storage of latex compositions. The resulting hydrolysis products lower the pH of the latex composition and could decrease the coalescing efficiency of the coalescing solvent with respect to the initial amount of the coalescing solvent.
as §1

[8] = Beeswax, 50/50 weight ratio, heated to 80° C., cooled to room temperature
[9] = Carnauba wax, 50/50 weight ratio, heated to 120° C.
[10] = Paraffin wax, 50/50 weight ratio, heated to 80° C., cooled to room temperature
[11] = Paraffin wax, 75/25 weight ratio, heated to 80° C., cooled to room temperature
[12] = Stearic acid, 50/50 weight ratio, heated to 80° C., cooled to room temperature
[13] = with Basil (Ocimum basilicum) essential oil
[14] = with Bergamot (Citrus bergamia) essential oil
[15] = with Birch sweet (Betula lenta) essential oil
[16] = with Citronella (Cymbopogon nardus) essential oil
[17] = with Coriander seed (Coriandrum sativum) essential oil
[18] = with Geranium (Pelargonium graveolens) essential oil
[19] = with Lavender (Lavandula angustifolium) essential oil
[20] = with Myrrh (Commiphora myrrha) essential oil
[21] = with Orange (Citrus sinensis) essential oil
[22] = with Patchouli (Pogostemon patchouli) essential oil
[23] = with Pine needle (pinus sylvestris) essential oil
[24] = with Vetiver (Vetivera zizanoides) essential oil
[25] = with Ylang ylang (Canaga odorata) essential oil

| Molecule | Compatibility with wax upon cooling [1, 8] | Compatibility with wax upon cooling [1, 9] | Compatibility with wax upon cooling [1, 10] | Compatibility with wax upon cooling [1, 11] | Compatibility with wax upon cooling [1, 12] | Initial pH [2] | pH 1 week [2] | pH 2 weeks [2] | Miscibility with tea tree oil [3] | Miscibility of 50/50 blend by weight [4, 13] | Miscibility of 50/50 blend by weight [4, 14] | Miscibility of 50/50 blend by weight [4, 15] | Miscibility of 50/50 blend by weight [4, 16] | Miscibility of 50/50 blend by weight [4, 17] | Miscibility of 50/50 blend by weight [4, 18] | Miscibility of 50/50 blend by weight [4, 19] | Miscibility of 50/50 blend by weight [4, 20] | Miscibility of 50/50 blend by weight [4, 21] | Miscibility of 50/50 blend by weight [4, 22] | Miscibility of 50/50 blend by weight [4, 23] | other results |
| --- | --- | --- | --- | --- | --- | --- | --- | --- | --- | --- | --- | --- | --- | --- | --- | --- | --- | --- | --- | --- | --- |
| CCCCCCCCCOC(=O)CCC1(C)OCC(C)O1 (stereo not drawn) [1N-LPK, 1-nonyl levulinate propylene glycol ketal] | single homogenous wax layer | single homogenous wax layer | single homogenous wax layer | single homogenous wax layer | single homogenous wax layer | 8.92 | 8.75 | 8.63 | miscible | Miscible | Miscible | Miscible | Miscible | Miscible | Miscible | Miscible | Miscible | Miscible | Miscible | Miscible | Miscibility of 50/50 blend by weight [4, 24]: Miscible; Miscibility of 50/50 blend by weight [4, 25]: Miscible |
| COc1ccc(C(=O)c2ccccc2)c(O)c1 [Oxybenzone, oxybenzone] |  |  |  |  |  |  |  |  |  |  |  |  |  |  |  |  |  |  |  |  | Miscibility in ethanol ([5]; 10% by weight level in ethanol): immiscible |
| CC(CCOC(=O)CCC1(C)OCC(C)O1)CC(C)(C)C (stereo not drawn) [355TMH-LPK, 3,5,5-trimethylhexyl levulinate propylene glycol ketal] | single homogenous wax layer | single homogenous wax layer | single homogenous wax layer | single homogenous wax layer | single homogenous wax layer | 8.92 | 8.78 | 8.64 | miscible | Miscible | Miscible | Miscible | Miscible | Miscible | Miscible | Miscible | Miscible | Miscible | Miscible | Miscible | Miscibility of 50/50 blend by weight [4, 24]: Miscible; Miscibility of 50/50 blend by weight [4, 25]: Miscible |
| 2,2,4-trimethyl-1,3-pentanediol monoisobutyrate [TPM] |  |  |  |  |  |  |  |  |  |  |  |  |  |  |  |  |  |  |  |  | % mass remaining ([6]; 0 min): 100%; % mass remaining ([6]; 5 min): 74%; % mass remaining ([6]; 10 min): 49%; % mass remaining ([6]; 15 min): 26%; % mass remaining ([6]; 20 min): 4%; % mass remaining ([6]; 30 min): 0%; % mass remaining ([6]; 60 min): 0% |
| CC(C)OC(=O)CCC1(C)OCC(C)O1 (stereo not drawn) [iPrLPK, isopropyl levulinate propylene glycol ketal] |  |  |  |  |  |  |  |  |  |  |  |  |  |  |  |  |  |  |  |  | Initial pH [7]: 8.93; pH 1 week [7]: 8.79; pH 2 weeks [7]: 8.73; pH 3 weeks [7]: 8.71; pH 4 weeks [7]: 8.64 |
| CCOC(=O)CCC1(C)OCC(C)O1 (stereo not drawn) [EtLPK, ethyl levulinate propylene glycol ketal] |  |  |  |  |  | 8.95 | 8.06 | 7.53 |  |  |  |  |  |  |  |  |  |  |  |  | Initial pH [7]: 9.00; pH 1 week [7]: 8.69; pH 2 weeks [7]: 8.53; pH 3 weeks [7]: 8.41; pH 4 weeks [7]: 8.24 |
| COc1ccc(C(=O)CC(=O)c2ccc(C(C)(C)C)cc2)cc1 [Avobenzone, avobenzone] |  |  |  |  |  |  |  |  |  |  |  |  |  |  |  |  |  |  |  |  | Miscibility in ethanol ([5]; 5% by weight level in ethanol): immiscible |
| CCCCC(CC)COC(=O)CCC1(C)OCC(C)O1 (stereo not drawn) [2EH-LPK, 2-ethylhexyl levulinate propylene glycol ketal] | single homogenous wax layer | single homogenous wax layer | single homogenous wax layer | single homogenous wax layer | single homogenous wax layer |  |  |  | miscible | Miscible | Miscible | Miscible | Miscible | Miscible | Miscible | Miscible | Miscible | Miscible | Miscible | Miscible | Initial pH [7]: 8.97; pH 1 week [7]: 8.99; pH 2 weeks [7]: 8.94; pH 3 weeks [7]: 9.03; pH 4 weeks [7]: 9.00; Miscibility of 50/50 blend by weight [4, 24]: Miscible; Miscibility of 50/50 blend by weight [4, 25]: Miscible |
